# Test results from ChEMBL document CHEMBL3826923, “Synthesis and biological activity of novel ester derivatives of N(3)-(4-metoxyfumaroyl)-(S)-2,3-diaminopropanoic acid containing amide and keto function as inhibitors of glucosamine-6-phosphate synthase” (Bioorg Med Chem Lett, 2016).
# Assays:
# [1] = Inhibition of Candida albicans glucosamine-6-phosphate synthase expressed in Escherichia coli using D-fructose-6-phosphate as substrate after 30 mins
# Staphylococcus aureus = test: Antimicrobial activity against Staphylococcus aureus ATCC 29213 after 24 hrs by serial two fold dilution method; format: functional; details: ATCC 29213, 24 h
# Candida albicans = test: Antimicrobial activity against Candida albicans ATCC 10231 after 48 hrs by serial two fold dilution method; format: functional; details: ATCC 10231, 48 h
# Nakaseomyces glabratus = test: Antimicrobial activity against Candida glabrata DSM 11226 after 48 hrs by serial two fold dilution method; format: functional; details: DSM 11226, 48 h
# Escherichia coli = test: Antimicrobial activity against Escherichia coli PCM 2560 after 24 hrs by serial two fold dilution method; format: functional; details: PCM 2560, 24 h
Structure (SMILES),IC50 [1] [µM],MIC80 (Staphylococcus aureus) [µg/mL],MIC80 (Candida albicans) [µg/mL],MIC80 (Nakaseomyces glabratus) [µg/mL],MIC80 (Escherichia coli) [µg/mL]
COC(=O)/C=C/C(=O)NC[C@H](N)C(=O)O[C@@H](C)C(=O)N(C)C.Cl,> 5000,> 1020,256,> 1020,> 1020
COC(=O)/C=C/C(=O)NC[C@H](N)C(=O)OCC(N)=O.Cl,202,> 1020,128,> 1020,> 1020
CNC(=O)[C@H](C)OC(=O)[C@@H](N)CNC(=O)/C=C/C(=O)OC.Cl,199,> 1020,16,> 1020,> 1020
COC(=O)/C=C/C(=O)NC[C@H](N)C(=O)O[C@@H](C)C(N)=O.Cl,82.1,> 1020,8,> 1020,> 1020

# Molecules with a lower IC50 [1], results first:
IC50 [1] [µM],MIC80 (Staphylococcus aureus) [µg/mL],MIC80 (Candida albicans) [µg/mL],MIC80 (Nakaseomyces glabratus) [µg/mL],MIC80 (Escherichia coli) [µg/mL],Structure (SMILES)
66.6,512,2,> 1020,> 1020,COC(=O)/C=C/C(=O)NC[C@H](N)C(=O)OCC(=O)N(C)C.Cl
27,1020,1,> 1020,> 1020,CNC(=O)COC(=O)[C@@H](N)CNC(=O)/C=C/C(=O)OC.Cl
5.17,> 1020,0.5,512,> 1020,COC(=O)/C=C/C(=O)NC[C@H](N)C(=O)OCC(=O)C(C)(C)C.Cl
5.08,> 1020,0.25,512,> 1020,COC(=O)/C=C/C(=O)NC[C@H](N)C(=O)OCC(C)=O.Cl
4.91,> 1020,0.5,512,> 1020,COC(=O)/C=C/C(=O)NC[C@H](N)C(=O)OC(C)C(C)=O.Cl (stereo not given in full)
4.03,> 1020,> 1020,> 1020,> 1020,COC(=O)/C=C/C(=O)NC[C@H](N)C(=O)O
